The test system of series [1] is Mus musculus. Kind of series: Antiarthritic activity in collagen-induced rheumatoid arthritis DBA/1 mouse model assessed as reduction in clinical score AUC at 15 mg/kg, po BID administered for 14 days starting from 7 days before immunization to 21 days after immunization and measured on day 41 post immunization. It counts as functional, organism-based. The settings on record: time 14.0 day.

Series [2] is described as follows: Microsomal stability in human liver microsomes assessed as intrinsic clearance at 1 uM incubated for 60 mins in presence of NADPH regenerating system by LC-MS/MS analysis. It counts as ADME, Microsome. The settings on record: read-out: CLH. For orientation: Liver microsomes are a subcellular fraction often used to study metabolism.
Series [3] is described as follows: Microsomal stability in rat liver microsomes assessed as intrinsic clearance at 1 uM incubated for 60 mins in presence of NADPH regenerating system by LC-MS/MS analysis. In kind it is ADME, Microsome. The settings on record: read-out: CLH.
A short description of series [4]: Plasma protein binding in mouse assessed as unbound fraction at 2 uM incubated for 4 hrs by LC/MS/MS based balanced dialysis method.
The target of series [5] is Cytochrome P450 2D6 (Homo sapiens, UniProt P10635). Kind of series: Inhibition of CYP2D6 in human liver microsomes incubated in presence NADPH by LC-MS/MS analysis.
Series [6] in a line: Plasma protein binding in rat assessed as unbound fraction at 2 uM incubated for 4 hrs by LC/MS/MS based balanced dialysis method.
The nature of series [7]: Metabolic stability in rat hepatocytes assessed as intrinsic clearance at 1 uM incubated for 90 mins by LC/MS/MS analysis. It counts as ADME, cell-based, Hepatocyte.
In series [8] the target is T1, Cytochrome P450 2C8 (Homo sapiens, UniProt P10632).
T1 sequence (P10632 whole entry): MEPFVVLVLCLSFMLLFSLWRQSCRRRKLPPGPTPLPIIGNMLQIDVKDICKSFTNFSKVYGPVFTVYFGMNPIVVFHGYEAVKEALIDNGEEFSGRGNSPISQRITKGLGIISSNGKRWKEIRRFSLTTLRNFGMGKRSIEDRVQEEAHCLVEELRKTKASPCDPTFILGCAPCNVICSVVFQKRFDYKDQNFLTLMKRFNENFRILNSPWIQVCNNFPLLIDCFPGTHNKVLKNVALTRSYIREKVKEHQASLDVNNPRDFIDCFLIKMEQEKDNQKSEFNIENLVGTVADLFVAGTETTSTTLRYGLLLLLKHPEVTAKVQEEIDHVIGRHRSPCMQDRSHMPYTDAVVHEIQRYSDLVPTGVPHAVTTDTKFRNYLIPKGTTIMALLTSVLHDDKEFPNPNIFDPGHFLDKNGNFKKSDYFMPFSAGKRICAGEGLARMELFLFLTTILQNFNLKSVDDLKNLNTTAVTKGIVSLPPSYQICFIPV
Kind of series: Inhibition of CYP2C8 in human liver microsomes incubated in presence NADPH by LC-MS/MS analysis.

Series [9] in a line: Plasma protein binding in human assessed as unbound fraction at 2 uM incubated for 4 hrs by LC/MS/MS based balanced dialysis method.
For series [10], the target named is T2, Cytochrome P450 2B6 (Homo sapiens, UniProt P20813).
T2 sequence (P20813 whole entry): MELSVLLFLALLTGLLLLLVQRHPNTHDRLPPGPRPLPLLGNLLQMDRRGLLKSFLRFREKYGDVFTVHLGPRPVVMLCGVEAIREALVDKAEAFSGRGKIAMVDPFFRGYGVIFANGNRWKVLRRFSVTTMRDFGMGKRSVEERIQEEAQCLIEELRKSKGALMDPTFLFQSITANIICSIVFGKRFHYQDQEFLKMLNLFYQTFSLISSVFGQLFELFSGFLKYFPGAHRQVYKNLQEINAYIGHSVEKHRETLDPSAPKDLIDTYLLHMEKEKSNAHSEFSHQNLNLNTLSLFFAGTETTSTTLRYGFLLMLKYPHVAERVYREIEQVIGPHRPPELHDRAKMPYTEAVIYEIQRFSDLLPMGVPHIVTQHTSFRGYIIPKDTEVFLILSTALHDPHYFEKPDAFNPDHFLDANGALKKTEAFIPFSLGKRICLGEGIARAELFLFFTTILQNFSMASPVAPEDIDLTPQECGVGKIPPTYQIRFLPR
Briefly: Inhibition of CYP2B6 in human liver microsomes incubated in presence NADPH by LC-MS/MS analysis.

Series [11] can be described thus: Apparent permeability across basolateral to apical side in human Caco-2 cells at 10 uM measured after 120 mins by LC-MS/MS analysis. A general note: Caco-2 cells form a polarised layer with tight junctions and transporters.
Series [12] is described as follows: Metabolic stability in human hepatocytes assessed as intrinsic clearance at 1 uM incubated for 90 mins by LC/MS/MS analysis. In kind it is ADME, cell-based, Hepatocyte.
A short description of series [13]: Apparent permeability across apical to basolateral side in human Caco-2 cells at 10 uM measured after 120 mins by LC-MS/MS analysis. The conditions noted are these: for Papp A→B at 2 h, 10 µM: Caco-2.
Series [14] concerns the target Cytochrome P450 2C19 (Homo sapiens, UniProt P33261). Briefly: Inhibition of CYP2C19 in human liver microsomes incubated in presence NADPH by LC-MS/MS analysis.
Series [15] in a line: Metabolic stability in mouse hepatocytes assessed as intrinsic clearance at 1 uM incubated for 90 mins by LC/MS/MS analysis. In kind it is ADME, cell-based, Hepatocyte.
In series [16] the target is T3, Cytochrome P450 1A2 (Homo sapiens, UniProt P05177).
T3 sequence (P05177 whole entry): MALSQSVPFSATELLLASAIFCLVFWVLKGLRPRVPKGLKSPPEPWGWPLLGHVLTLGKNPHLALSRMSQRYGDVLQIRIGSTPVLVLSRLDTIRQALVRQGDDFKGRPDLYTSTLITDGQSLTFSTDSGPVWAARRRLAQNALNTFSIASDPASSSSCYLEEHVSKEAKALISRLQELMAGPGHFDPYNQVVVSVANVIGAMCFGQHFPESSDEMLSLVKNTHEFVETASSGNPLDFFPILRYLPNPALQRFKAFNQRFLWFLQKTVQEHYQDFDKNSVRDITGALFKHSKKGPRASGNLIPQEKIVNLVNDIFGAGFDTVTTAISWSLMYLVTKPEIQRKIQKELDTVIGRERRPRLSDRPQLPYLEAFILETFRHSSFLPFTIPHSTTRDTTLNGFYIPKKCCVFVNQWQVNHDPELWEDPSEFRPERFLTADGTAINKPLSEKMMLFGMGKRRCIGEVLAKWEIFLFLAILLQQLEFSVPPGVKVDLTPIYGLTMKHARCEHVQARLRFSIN
Briefly: Inhibition of CYP1A2 in human liver microsomes incubated in presence NADPH by LC-MS/MS analysis.

Series [17] in a line: Microsomal stability in mouse liver microsomes assessed as intrinsic clearance at 1 uM incubated for 60 mins in presence of NADPH regenerating system by LC-MS/MS analysis. The settings on record: read-out: CLH. It counts as ADME, Microsome.
The target of series [18] is Cytochrome P450 2C9 (Homo sapiens, UniProt P11712). Kind of series: Inhibition of CYP2C9 in human liver microsomes incubated in presence NADPH by LC-MS/MS analysis.
The subject of series [19] is Mus musculus. Kind of series: Antiarthritic activity in collagen-induced rheumatoid arthritis DBA/1 mouse model assessed as reduction in incidence rate at 15 mg/kg, po BID administered for 14 days starting from 7 days before immunization to 21 days after immunization and measured post last dose. It counts as functional. Also noted: scale not given: the % may be the effect or the level left. The settings on record: time 14 day.

For series [20], the target named is Cytochrome P450 3A4 (Homo sapiens, UniProt P08684). Kind of series: Inhibition of CYP3A4 in human liver microsomes incubated in presence NADPH by LC-MS/MS analysis.
The species entered for series [21] is Homo sapiens. Briefly: Selectivity index, ratio of IC50 for inhibition of recombinant human JAK2 to IC50 for inhibition of recombinant human JAK1.
The species named for series [22] is Homo sapiens. Kind of series: Selectivity index, ratio of IC50 for inhibition of recombinant human TYK2 to IC50 for inhibition of recombinant human JAK1.
Series [23] in a line: Efflux ratio of apparent permeability from basolateral to apical side over apical to basolateral side in human Caco-2 cells at 10 uM incubated for 120 mins by LC-MS/MS analysis.

The record followed here is ChEMBL document CHEMBL5150077, “Identification of TUL01101: A Novel Potent and Selective JAK1 Inhibitor for the Treatment of Rheumatoid Arthritis” (J Med Chem, 2022).

The source made the active and inactive calls. The calls are words filed in the database; no cut-off is given here. A value given as a limit tells only on which side of the number the result lay.

Chain of Cytochrome P450 2D6 (P10635 whole entry): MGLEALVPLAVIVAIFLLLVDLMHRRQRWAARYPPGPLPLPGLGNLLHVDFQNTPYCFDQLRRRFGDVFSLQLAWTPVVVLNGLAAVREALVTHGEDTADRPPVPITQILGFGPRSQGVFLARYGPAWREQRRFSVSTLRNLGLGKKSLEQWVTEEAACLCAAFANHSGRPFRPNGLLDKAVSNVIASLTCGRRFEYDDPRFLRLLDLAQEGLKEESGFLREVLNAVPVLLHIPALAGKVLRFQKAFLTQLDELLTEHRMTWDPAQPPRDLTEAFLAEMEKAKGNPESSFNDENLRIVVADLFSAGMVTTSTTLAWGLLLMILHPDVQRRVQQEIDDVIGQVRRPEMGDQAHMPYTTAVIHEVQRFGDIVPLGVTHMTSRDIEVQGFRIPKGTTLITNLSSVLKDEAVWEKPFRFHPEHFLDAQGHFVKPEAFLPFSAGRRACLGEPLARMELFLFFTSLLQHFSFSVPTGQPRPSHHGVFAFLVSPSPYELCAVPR
Chain of Cytochrome P450 2C19 (P33261 whole entry): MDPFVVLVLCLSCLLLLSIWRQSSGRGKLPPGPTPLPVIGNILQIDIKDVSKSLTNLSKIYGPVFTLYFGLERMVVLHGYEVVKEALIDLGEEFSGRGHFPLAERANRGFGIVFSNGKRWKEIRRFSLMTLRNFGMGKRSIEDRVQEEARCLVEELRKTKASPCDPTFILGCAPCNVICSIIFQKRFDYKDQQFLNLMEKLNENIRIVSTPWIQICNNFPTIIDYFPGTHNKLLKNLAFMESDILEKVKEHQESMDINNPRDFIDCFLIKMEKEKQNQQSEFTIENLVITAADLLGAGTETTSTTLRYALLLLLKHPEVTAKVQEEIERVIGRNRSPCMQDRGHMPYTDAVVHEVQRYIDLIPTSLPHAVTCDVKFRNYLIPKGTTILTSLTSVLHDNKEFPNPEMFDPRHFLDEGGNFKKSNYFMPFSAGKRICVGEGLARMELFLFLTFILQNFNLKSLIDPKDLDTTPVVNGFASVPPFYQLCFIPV
Chain of Cytochrome P450 2C9 (P11712 whole entry): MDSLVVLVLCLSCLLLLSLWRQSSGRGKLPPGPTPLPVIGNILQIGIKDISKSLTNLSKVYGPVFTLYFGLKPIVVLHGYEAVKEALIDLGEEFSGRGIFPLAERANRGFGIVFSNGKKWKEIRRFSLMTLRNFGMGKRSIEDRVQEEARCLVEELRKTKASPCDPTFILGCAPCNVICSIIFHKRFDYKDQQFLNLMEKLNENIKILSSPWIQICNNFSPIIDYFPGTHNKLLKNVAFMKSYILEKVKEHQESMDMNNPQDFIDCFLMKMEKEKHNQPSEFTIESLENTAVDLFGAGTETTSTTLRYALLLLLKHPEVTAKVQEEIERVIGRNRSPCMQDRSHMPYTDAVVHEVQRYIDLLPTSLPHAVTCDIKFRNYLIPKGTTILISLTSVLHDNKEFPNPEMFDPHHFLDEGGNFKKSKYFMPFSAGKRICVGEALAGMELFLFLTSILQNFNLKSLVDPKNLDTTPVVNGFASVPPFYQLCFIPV
Chain of Cytochrome P450 3A4 (P08684 whole entry): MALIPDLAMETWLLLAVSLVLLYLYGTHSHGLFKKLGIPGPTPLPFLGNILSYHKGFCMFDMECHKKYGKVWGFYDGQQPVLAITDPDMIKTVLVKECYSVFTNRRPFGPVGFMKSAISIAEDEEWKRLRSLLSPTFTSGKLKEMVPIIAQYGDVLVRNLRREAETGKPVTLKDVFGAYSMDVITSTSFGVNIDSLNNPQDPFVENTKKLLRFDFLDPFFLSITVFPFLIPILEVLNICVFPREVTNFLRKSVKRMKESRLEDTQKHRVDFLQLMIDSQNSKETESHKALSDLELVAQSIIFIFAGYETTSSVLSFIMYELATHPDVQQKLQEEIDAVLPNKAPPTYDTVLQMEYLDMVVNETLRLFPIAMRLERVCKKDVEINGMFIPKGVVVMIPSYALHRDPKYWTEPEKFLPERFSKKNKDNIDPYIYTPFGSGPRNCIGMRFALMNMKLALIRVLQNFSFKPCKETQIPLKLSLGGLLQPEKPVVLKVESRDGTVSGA

What is called fraction unbound is free concentration divided by total concentration. Broadly, the IC50 is the concentration needed to halve the response being measured. Usually Papp B→A stands for how fast a substance crosses the layer from the basolateral side. For `O=C(Nc1nc2cccc(-c3ccc(CN4CCS(=O)(=O)CC4)cc3)n2n1)C1CC1` [FILGOTINIB], the outcome in series [1] was Active. Also, the microsomal CLint at 1 µM in series [2], in series [3] and in series [17] was less than 9.6 µL/min/mg each time. For the same compound, the fraction unbound at 4 h, 2 µM is 0.316 in series [4], 0.399 in [6] and 0.518 in series [9]. Also, the IC50 in series [5] is greater than 100 µM; in [8], greater than 100 µM; in [10], greater than 100 µM; in [14], 88.2 µM; in series [16], 65.6 µM; in series [18] it was greater than 100 µM. Moreover, the CLH in series [7] was less than 6.4 µL/min/mg; in [12] it was less than 6.4 µL/min/mg; in series [15], 22.3 µL/min/mg. In series [11], the Papp B→A at 2 h, 10 µM came to 24.5 ×10⁻⁶ cm/s. For the same compound, in series [13] (caco-2, 2 h, 10 µM), the Papp is 0.28 10^-6 cm/s. The Activity in series [19] was 100%.

Usually Papp A→B stands for how fast a substance crosses the layer from the apical side. In the case of `N#CCC(=O)N1CC2(CCC(c3cccc4nc(NC(=O)C5CC5)nn34)CC2)C1`, the microsomal CLint at 1 µM in series [2], in [3] and in series [17] was less than 9.6 µL/min/mg throughout. In addition, the values for the fraction unbound at 4 h, 2 µM in [4], in series [6] and in series [9] were 0.479, 0.544 and 0.515, respectively. For the same compound, the 50% inhibitory concentration (IC50) in series [5], in [20], in [8], in series [10], in series [14] and in series [16] was greater than 100 µM each time. The half-inhibitory concentration (IC50) in [18] was greater than 100 µM. Also, the figures for the CLH in series [7], in series [12] and in series [15] were less than 6.4 µL/min/mg, less than 6.4 µL/min/mg and less than 6.6 µL/min/mg, respectively. Moreover, the Papp B→A at 2 h, 10 µM in series [11] worked out at 20.4 ×10⁻⁶ cm/s. Besides, in series [13], the Papp A→B at 2 h, 10 µM was 0.1 ×10⁻⁶ cm/s.

As a reminder, the efflux ratio is a quotient of directional permeabilities that is used to spot active efflux. Regarding `O=C(Nc1nc2cccc(C3CCC(NC(=O)C4(F)CC4)CC3)n2n1)C1CC1` (stereo not drawn), the Ratio IC50 stood at 11.6 in series [21] and 4.1 in [22]. Further, the figures for the microsomal CLint at 1 µM in [2], in series [3] and in series [17] were less than 9.6 µL/min/mg, less than 9.6 µL/min/mg and 10.6 µL/min/mg, respectively. Moreover, the fraction unbound at 4 h, 2 µM amounted to 0.28 in series [4], 0.196 in [6] and 0.306 in series [9]. For the same compound, the IC50 in [5], in series [20], in [8], in [10], in series [14] and in [16] was greater than 100 µM throughout. In [18], this compound yielded a concentration for half-maximal inhibition (IC50) greater than 100 µM. For the same compound, the results for the CLH in [7], in [12] and in series [15] were less than 6.4 µL/min/mg, less than 6.4 µL/min/mg and 15.3 µL/min/mg, respectively. Moreover, the efflux ratio at 2 h, 10 µM in [23] amounted to 6.57. Besides, the Papp B→A at 2 h, 10 µM in series [11] worked out at 28.6 ×10⁻⁶ cm/s. Further, the Papp A→B at 2 h, 10 µM in [13] was 4.36 ×10⁻⁶ cm/s.
